# From US8673938B2, “Chemical compounds” (priority 2006, dated 2014)
# Target: T1, human 11βHSD1 enzyme (Homo sapiens (Human), UniProt P28845)
# Experiment: biochemical
# Details: not given
# T1 sequence (P28845 whole entry): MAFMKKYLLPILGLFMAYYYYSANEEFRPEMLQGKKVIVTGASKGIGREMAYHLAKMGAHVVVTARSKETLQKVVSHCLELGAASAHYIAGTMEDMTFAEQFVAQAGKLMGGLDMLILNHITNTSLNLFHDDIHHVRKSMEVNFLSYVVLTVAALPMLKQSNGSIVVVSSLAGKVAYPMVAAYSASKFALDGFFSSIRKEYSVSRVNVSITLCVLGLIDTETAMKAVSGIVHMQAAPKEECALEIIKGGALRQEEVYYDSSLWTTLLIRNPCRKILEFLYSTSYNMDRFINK
row,SMILES,IC50 [µM]
1,"O=C(O)C[C@@H]1CCCN(c2ccc(C(=O)NC34CC5CC(CC(C5)C3)C4)cn2)C1 [{(3S)-1-[5-(adamantan-1-ylcarbamoyl)pyridin-2-yl]piperidin-3-yl}acetic acid, reference compound]",> 30
2,O=C(O)C[C@@H]1CCCN(c2ccc(C(=O)NC3CCCCC3)c(N3CCNCC3)n2)C1 [{(3S)-1-[5-(cyclohexylcarbamoyl)-6-(piperazin-1-yl)pyridin-2-yl]piperidin-3-yl}acetic acid],> 30

# Same assay, conditions: read-out: % inhibition of human 11-βHSD
row,SMILES,inhibition at 30 µM [%]
1,"CCCSc1nc(N2CCC[C@H](CC(=O)O)C2)ccc1C(=O)NC1CCCCC1 [Example 1, 2-[(3R)-1-[5-(Cyclohexylcarbamoyl)-6-propylsulfanyl-pyridin-2-yl]-3-piperidyl]acetic acid]",87
2,"CCCSc1nc(N2CCC[C@@H](CC(=O)O)C2)ccc1C(=O)NC1CCCCC1 [Example 7, 2-[(3S)-1-[5-(cyclohexylcarbamoyl)-6-propylsulfanyl-pyridin-2-yl]-3-piperidyl]acetic acid]",87

# Target: T1, human 11βHSD1 enzyme
# Experiment: not given
# Details: not given
row,SMILES,IC50 [µM]
1,"CCCSc1nc(N2CCC[C@H](CC(=O)O)C2)ccc1C(=O)NC1CCCCC1 [Example 1, 2-[(3R)-1-[5-(Cyclohexylcarbamoyl)-6-propylsulfanyl-pyridin-2-yl]-3-piperidyl]acetic acid]",0.095
2,"CCCSc1nc(N2CCC[C@@H](CC(=O)O)C2)ccc1C(=O)NC1CCCCC1 [Example 7, 2-[(3S)-1-[5-(cyclohexylcarbamoyl)-6-propylsulfanyl-pyridin-2-yl]-3-piperidyl]acetic acid]",0.007

# Same assay, conditions: repeat assays
row,SMILES,50% inhibition of the enzyme achieved
1,O=C(O)C[C@@H]1CCCN(c2ccc(C(=O)NC3C4CC5CC(C4)CC3C5)cn2)C1 (stereo partly drawn) [2-[(3S)-1-[5-(2-adamantylcarbamoyl)pyridin-2-yl]-3-piperidyl]acetic acid],"achieved 50% inhibition in one assay, but in a subsequent 3 assays did not"

# Same assay, conditions: test concentration of 30 μM of compound
row,SMILES,% inhibition of human 11-βHSD [%]
1,O=C(O)C[C@@H]1CCCN(c2ccc(C(=O)N[C@H]3C4CC5CC3C[C@@](O)(C5)C4)c(SCc3ccccc3)n2)C1 [compound 107],90
2,O=C(O)C[C@@H]1CCCN(c2ccc(C(=O)NC3C4CC5CC3CC(O)(C5)C4)c(SCCc3ccccc3)n2)C1 (stereo partly drawn) [compound 108],88
3,O=C(O)C[C@@H]1CCCN(c2ccc(C(=O)NC3CCCCC3)cn2)C1 [compound 133],58
4,O=C(O)C[C@@H]1CCCN(c2ccc(C(=O)NC3CCCCC3)c(N3CCCC3)n2)C1 [compound 155],94
5,O=C(O)C[C@@H]1CCCN(c2ccc(C(=O)NC3CCCCC3)c(N3CCOCC3)n2)C1 [compound 156],78
6,Cc1nc(N2CCC[C@@H](CC(=O)O)C2)ccc1C(=O)NC1CCCCC1 [compound 159],55
7,Cc1nc(N2CCC[C@@H](CC(=O)O)C2)ccc1C(=O)NC12CC3CC(CC(C3)C1)C2 [compound 160],80
8,Cc1nc(N2CCC[C@@H](CC(=O)O)C2)ccc1C(=O)NC1C2CC3CC(C2)CC1C3 (stereo partly drawn) [compound 161],84
9,O=C(O)C[C@@H]1CCCN(c2ccc(C(=O)NC3CCCCC3)c(C3CC3)n2)C1 [compound 165],95
10,O=C(O)C[C@@H]1CCCN(c2ccc(C(=O)NC3C4CC5CC(C4)CC3C5)c(C3CC3)n2)C1 (stereo partly drawn) [compound 166],95
11,O=C(O)C[C@@H]1CCCN(c2ccc(C(=O)N[C@H]3C4CC5CC3C[C@@](O)(C5)C4)c(C3CC3)n2)C1 [compound 167],95
